Laboratory results from patent US20210046094A1, “COMPOSITIONS AND METHODS FOR TREATING PAIN” (THE UNITED STATES GOVERNMENT AS REPRESENTED BY THE …, priority 2018, published 2021).
“Also recorded” adds a separate entry of the source.

Key:
[1] = tested on: pCaMKII; assay: Astrocytic pCaMKII post-PNI (immunolabeling); assay type: in vivo, mouse; conditions: versus vehicle, n=3/group
[2] = tested on: mice with peripheral nerve injury (PNI) by sciatic nerve cuffing; assay: Sciatic nerve cuff model: cold/thermal allodynia (acetone); assay type: in vivo, mouse; conditions: WT mice
Procedure: (§1) Sciatic nerve cuff model of neuropathic pain (Valcin et al. The sciatic nerve cuffing model of neuropathic pain in mice, J Vis Exp, PMID: 25078668 (2014)). Surgeries are performed under ketamine/xylazine anesthesia using aseptic techniques. The common branch of the right sciatic nerve is dissected and a 2 mm long section of pre-split PE-20 tubing is placed around it. Shams undergo the same surgery without cuffing.
(§2) Cold allodynia is assessed using acetone. A 10 μL volume of acetone is propelled via air burst from a 200 μL pipette onto the mid-plantar surface of the hind paw without touching the skin. Time spent elevating/licking/biting/shaking the stimulated paw, up to 15 sec, is measured with a stop watch. Each paw is stimulated 5×, allowing 5 min to elapse between successive paw stimulations.
as §2, with “THERMAL ALLODYNIA” for “Cold allodynia”, “acetone (Carey et al., Inflammatory and Neuropathic Nociception is Preserved in GPR55 Knockout Mice, Sci Rep, 7:944, PMID 28428628 (2017)).” for “acetone.”

[3] = tested on: mice with peripheral nerve injury (PNI) by sciatic nerve cuffing; assay: Sciatic nerve cuff model: thermal hyperalgesia (Hargreaves method); assay type: in vivo, mouse; conditions: adult male mice; intrathecal at lumbar 5, 5 ng/hour ×14 days from day +15; tested day +28
Procedure: THERMAL […] is assessed using the Hargreaves method, using a Hargreaves-type apparatus (Ugo Basile Plantar Test Instrument; Stoelting). An unrestrained animal is placed in a Perspex enclosure on the top of glass pane. An infrared generator placed below glass pane is aimed at the plantar surface of the hind paw and the time to withdrawal is recorded automatically via an optic sensor, avoiding experimental bias. Paw-withdrawal latency is calculated as the mean of 3-5 different measurements taken at 15 min intervals. […] On day 0, all mice underwent unilateral sciatic nerve cuffing, in which a 2 mm long section of pre-split PE-20 tubing is placed around the right sciatic nerve under sterile conditions (Yalcin et al., The sciatic nerve cuffing model of neuropathic pain in mice, J Vis Exp, PMID 25078668 (2014)).

[4] = tested on: GFAP or SUR1; assay: Intrathecal infusion in uninjured, naive mouse: GFAP and SUR1 expression; assay type: in vivo
Text: Spinal cord-specific inhibition or downregulation of SUR1 in central glia. […] The anesthetized mouse is mounted in a stereotaxic apparatus, hair is clipped from the dorsal thoracolumbar region, and the skin is prepped with Betadine solution. Using microscopic visualization, a midline incision is made, the paraspinal muscles are dissected off of the spinous processes and laminae. The spinous processes of L6-S1 are removed using a high speed surgical drill, and the dura between them is punctured using a 27-g needle. The infusion cannula of a Brain infusion kit (30 gauge cannula; Brain Infusion kit 3) is advanced stereotactically 1 mm into the thecal sac and is secured to the spine with cement.

[5] = tested on: mice with peripheral nerve injury (PNI) by sciatic nerve cuffing; assay: Sciatic nerve cuff model: anxiety- and depression-like behaviors (open field, elevated plus maze, tail suspension); assay type: in vivo, mouse; conditions: WT mice; 10 μg/day intraperitoneal starting on day 21 after PNI
Procedure: ANXIETY-LIKE and DEPRESSION-LIKE BEHAVIORS are assessed only one time, they are administered during the 3 days preceding euthanasia, and the order in which tests are applied is from least stressful to more stressful (as listed below). We follow standard protocols, fully described in Yalcin et al (Yalcin et al., A time-dependent history of mood disorders in a murine model of neuropathic pain, Biol Psychiatry, 70:946-53, PMID 21890110 (2011)). Open field testing is employed for measuring locomotor activity and willingness to explore in mice. A computerized tracking system (ANY-Maze; Stoelting Co.) records animal movements and calculates speed, distance and other parameters. Time spent exploring the center of the open field is inversely related to anxiety. Elevated Plus Maze (Colbourn Instruments). Rodents naturally tend to explore novel environments, but open, well lit, elevated areas are perceived as aversive. This test is widely used in rodent models of anxiety. Tail suspension test (Harvard Apparatus), which measures immobility time, as well as energy and power in motion, is employed as a measure of depression-like behavior in rodents.

[6] = tested on: CCL2; assay: Quantitative immunohistochemistry of ipsilateral dorsal horn astrocytes after PNI: CCL2; assay type: in vivo, mouse
Text: (§3) Tissue analysis. Spinal cords are perfusion-fixed (4% PFA), cryoprotected and cryosectioned coronally (7 μm). The dorsal horns of L3-4, which innervates the plantar surface of the mouse hindpaw (Rigaud et al., Species and strain differences in rodent sciatic nerve anatomy: implications for studies of neuropathic pain, Pain, 136:188-201, PMID: 18316160 (2008)), are examined for markers of astrocyte activation (GFAP), Sur1-Trpm4 and IL-6, as well as the chemokines CCL2 and CXCL1. […]
(§4) Tissue analysis. […] The DRG and dorsal horns of L3-4, which innervate the plantar surface of the hindpaw (Rigaud et al., Species and strain differences in rodent sciatic nerve anatomy: implications for studies of neuropathic pain, Pain, 136:188-201, PMID 18316160 (2008)), are examined to quantify changes in, and the time course of those changes, for markers of astrocyte activation (GFAP), microglia/macrophage activation (Iba1, CD68), SUR1-TRPM4, IL-6, the chemokines, CCL2 and CXCL1 and their cognate receptors, CCR2 and CXCR2. Expression of these markers will be quantitatively compared in the different treatment groups using immunohistochemistry and in situ hybridization with cell-specific markers (GFAP, NeuN, Iba1, CD45). Quantitative comparisons will be validated using immunoblot and qPCR. […]

[7] = tested on: IL-6; assay: Quantitative immunohistochemistry of ipsilateral dorsal horn astrocytes after PNI: IL-6; assay type: in vivo, mouse
Text: as §3, §4

[8] = tested on: CXCL1; assay: Quantitative immunohistochemistry of ipsilateral dorsal horn astrocytes after PNI: CXCL1; assay type: in vivo, mouse
Text: as §3, §4

[9] = Normal mechanical or thermal sensitivity thresholds (non-sensitized condition); assay type: in vivo; conditions: non-sensitized condition (not shown)
[10] = infusion of an appropriate dose of injectable glibenclamide, non-diabetics; below hypoglycemic threshold; cited from earlier work
[11] = administered via transdermal skin patch, preclinical; cited from earlier work
[12] = tested on: experimental autoimmune encephalomyelitis; conditions: cited from earlier work
[13] = tested on: mice with peripheral nerve injury (PNI) by sciatic nerve cuffing; assay: Sciatic nerve cuff model of neuropathic pain: mechanical allodynia (von Frey filaments); assay type: in vivo, mouse
Text: WT mice underwent unilateral PNI by sciatic nerve cuffing, a widely accepted model of neuropathic pain in mice (Valcin et al. The sciatic nerve cuffing model of neuropathic pain in mice, J Vis Exp, PMID: 25078668 (2014)). Sciatic nerve cuffing reliably induces signs of chronic pain, including sustained mechanical and thermal allodynia. In this model, mechanical allodynia assessed using von Frey filaments develops within 1 week, and is sustained thereafter.
as §1
Mechanical hypersensitivity. The threshold for ipsi- and contralateral hindpaw withdrawal is determined using von Frey filaments (Chaplan et al., Quantitative assessment of tactile allodynia in the rat paw, J Neurosci Methods, 53:55-63, PMID: 7990513(1994)).Mice are placed in clear Plexiglas boxes on an elevated mesh screen.
Calibrated von Frey filaments are applied to the plantar surface of each hindpaw (0.16-15 gm). The “up-down method” (Chaplan et al., Quantitative assessment of tactile allodynia in the rat paw, J Neurosci Methods, 53:55-63, PMID: 7990513(1994)) is used to determine the withdrawal threshold.
MECHANICAL ALLODYNIA. The threshold for ipsi- and contralateral hindpaw withdrawal is determined using von Frey filaments. von Frey filaments are applied to the plantar surface of each hindpaw (0.16-4 gm). The “up-down method (Chaplan et al., Quantitative assessment of tactile allodynia in the rat paw, J Neurosci Methods, 53:55-63, PMID 7990513 (1994))” is used to determine the withdrawal threshold, as in our previous studies (Masri et al., Zona incerta: a role in central pain, J Neurophysiol, 102:181-91, PMID 19403748 (2009); Whitt et al., Pathological activity in mediodorsal thalamus of rats with spinal cord injury pain, J Neurosci, 33:3915-26, PMID 23447602 (2013)). Alternatively, the withdrawal threshold is determined using the Hugo Basile Dynamic Plantar Aesthesiometer (Stoelting).
On day 0, all mice underwent unilateral sciatic nerve cuffing, in which a 2 mm long section of pre-split PE-20 tubing is placed around the right sciatic nerve under sterile conditions (Yalcin et al., The sciatic nerve cuffing model of neuropathic pain in mice, J Vis Exp, PMID 25078668 (2014)).

[14] = Example 1 mice (FIG. 2D), compared to vehicle-treated controls
[15] = mice from FIG. 10 (10 μg/day IP from day 21), tissues at day 49 (FIG. 6D)
[16] = WT mice, 10 μg/day intraperitoneal starting on day 21 after PNI

COc1ccc(Cl)cc1C(=O)NCCc1ccc(S(=O)(=O)NC(=O)NC2CCCCC2)cc1 [glibenclamide]
astrocytic pCaMKII [1]: increases | cold allodynia ([2]; 10 μg IP loading dose plus 40 ng/hr subcutaneous via mini-osmotic pump ×2 weeks, shortly after PNI): significant blunting | thermal allodynia ([2]; 10 μg/day intraperitoneal starting on day 21 after PNI): significantly ameliorated | thermal hyperalgesia [3]: completely reversed | upregulation of GFAP or SUR1 [4]: does not upregulate GFAP or SUR1 | anxiety behaviors (open field and elevated plus maze) [5]: significantly ameliorated | depression-like behaviors (tail suspension) [5]: significantly ameliorated | CCL2 in ipsilateral dorsal horn astrocytes [6, 14]: significant reduction | CCL2 in ipsilateral dorsal horn astrocytes [6, 15]: significant reductions | IL-6 in ipsilateral dorsal horn astrocytes [7, 14]: significant reduction | IL-6 in ipsilateral dorsal horn astrocytes [7, 15]: significant reductions | CXCL1 in ipsilateral dorsal horn astrocytes [8, 14]: significant reduction | CXCL1 in ipsilateral dorsal horn astrocytes [8, 15]: significant reductions | normal mechanical sensitivity thresholds [9]: does not modify | normal thermal sensitivity thresholds [9]: does not modify | serum levels [10]: < 45 ng/mL | plasma levels [11]: steady plasma levels of drug that can be maintained below the hypoglycemic threshold | entry into spinal cord tissues ([12]; CNS inflammatory condition (EAE)): readily enters spinal cord tissues | inflammation ([12]; EAE spinal cord): ameliorates inflammation | mechanical allodynia ([13]; WT mice, 10 μg IP loading dose plus 40 ng/hr subcutaneous via mini-osmotic pump ×2 weeks, shortly after PNI): significant blunting | duration of drug treatment required for complete reversal of mechanical allodynia [13, 16]: 2-3 weeks | mechanical allodynia [13, 16]: significantly ameliorated; also recorded: gradual but complete reversal | allodynia symptoms (mechanical allodynia, FIG. 3C) ([13]; WT mice, treatment beginning on day 18 after PNI, after allodynia was well established): significant reversal | mechanical allodynia ([13]; adult male mice, intrathecal at lumbar 5, 5 ng/hour ×14 days from day +15, tested day +28): completely reversed
